Assay results as given in US20200231614A1, “PSMA TARGETED RADIOHALOGENATED UREAS FOR CANCER RADIOTHERAPY” (THE JOHNS HOPKINS UNIVERSITY, priority 2015, published 2020).
Read-outs that look alike come from different tables or passages of the source.

Assays:
PSMA = PSMA (Homo sapiens, UniProt Q04609); experiment: PSMA binding affinity (Ki); conditions: measured Ki, Table 11
Text: Lysine glutamate ureas compounds for radiotherapy are disclosed in FIG. 2.

PSMA positive cells = experiment: In vitro radiotoxicity (cell kill); conditions: vs. free [^211At]astatide (FIG. 5B)
LNCaP cells = experiment: Uptake by LNCaP cells in presence and absence of PSMA inhibitor; conditions: 2 h and 4 h, presence and absence of PSMA inhibitor 2-PSMA (FIG. 5A)
[1] = test system: PSMA + PC-3 PiP and PSMA − PC-3 flu tumor xenografts; conditions: for Biodistribution: PC-3 PiP: PSMA+ tumor xenograft; for Biodistribution: PC-3 flu: PSMA− tumor xenograft
[2] = test system: PSMA+(PIP) tumors and PSMA−(Flu) tumors; format: in vivo; conditions: 3 to 19 days after single-bolus injection (20 μCi), PSMA+(PIP) vs PSMA−(Flu) tumors
[3] = 18 H post-injection, comparative Table 13

PSMA, sequence (Q04609 whole entry): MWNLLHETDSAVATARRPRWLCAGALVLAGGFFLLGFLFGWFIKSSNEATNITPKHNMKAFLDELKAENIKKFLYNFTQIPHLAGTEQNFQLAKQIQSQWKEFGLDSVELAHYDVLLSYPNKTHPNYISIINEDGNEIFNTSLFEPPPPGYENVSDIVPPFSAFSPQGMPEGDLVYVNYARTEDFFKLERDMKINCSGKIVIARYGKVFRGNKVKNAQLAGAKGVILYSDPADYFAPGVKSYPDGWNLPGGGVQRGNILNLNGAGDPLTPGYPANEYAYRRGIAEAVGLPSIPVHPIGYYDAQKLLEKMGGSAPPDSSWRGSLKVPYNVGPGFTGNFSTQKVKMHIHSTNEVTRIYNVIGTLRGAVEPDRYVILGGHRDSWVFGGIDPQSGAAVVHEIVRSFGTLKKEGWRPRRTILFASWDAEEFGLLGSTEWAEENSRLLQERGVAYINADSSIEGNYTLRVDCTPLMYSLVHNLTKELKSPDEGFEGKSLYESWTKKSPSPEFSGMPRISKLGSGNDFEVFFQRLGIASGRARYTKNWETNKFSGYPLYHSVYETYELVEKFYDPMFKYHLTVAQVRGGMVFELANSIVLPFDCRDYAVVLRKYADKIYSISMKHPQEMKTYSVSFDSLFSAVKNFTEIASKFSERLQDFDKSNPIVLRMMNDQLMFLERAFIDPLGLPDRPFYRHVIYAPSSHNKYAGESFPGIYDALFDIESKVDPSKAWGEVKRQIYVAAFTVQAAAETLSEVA

Which Ki (PSMA) does the source give for `O=C(O)CC[C@H](NC(=O)N[C@@H](CCC(=O)NCCc1ccc(I)cc1)C(=O)O)C(=O)O` [HS-549, (((5)-1-Carboxy-4-((4-iodophenethyl)amino)-4-oxobutyl)carbamoyl)-L-glutamic Acid] here?
Its Ki is 0.01 nM.

`O=C(O)CC[C@H](NC(=O)NC(CCCCNC(=O)c1ccc([211At])cc1)C(=O)O)C(=O)O` (stereo partly drawn) [[^211At]YC-I-27, (2S)-2-(3-(1-Carboxy-5-(4-[^211At]asatatobenzamido)pentyl)ureido)pentanedioic Acid] was tested. Which Cell kill (PSMA positive cells) did it give?
The Cell kill was “effectively kill cell relative to the untargeted alpha emitter”.

And the “Uptake by LNCaP cells” value (LNCaP cells)?
The value was “is blocked, indicating target (PSMA) specific binding”.

And the “Biodistribution: Sm int.” value ([1]; 1 H post-injection)?
The value was 3.67 ± 0.65 % ID/g.

What about the “Biodistribution: bladder” value ([1]; 1 H post-injection) of the same compound?
The value was 5.45 ± 2.57 % ID/g.

What about the “Biodistribution: blood” value ([1]; 1 H post-injection) of the same compound?
The value was 1.67 ± 0.32 % ID/g.

And the “Biodistribution: heart” value ([1]; 1 H post-injection)?
Its value is 2.36 ± 0.48 % ID/g.

What about the “Biodistribution: kidney” value ([1]; 1 H post-injection) of the same compound?
The value was 71.5 ± 12.0 % ID/g.

And the “Biodistribution: liver” value ([1]; 1 H post-injection)?
Its value is 2.11 ± 0.65 % ID/g.

And the “Biodistribution: lung” value ([1]; 1 H post-injection)?
Its value is 5.82 ± 1.28 % ID/g.

What about the “Biodistribution: muscle” value ([1]; 1 H post-injection) of the same compound?
The value was 0.95 ± 0.15 % ID/g.

And the “Biodistribution: spleen” value ([1]; 1 H post-injection)?
The value was 29.2 ± 10.2 % ID/g.

And the “Biodistribution: stomach” value ([1]; 1 H post-injection)?
Its value is 10.1 ± 1.66 % ID/g.

What about the “Biodistribution: thyroid” value ([1]; 1 H post-injection) of the same compound?
Its value is 3.68 ± 1.10 % ID/g.

What about the “Biodistribution: Sm int.” value ([1]; 2 H post-injection) of the same compound?
Its value is 2.08 ± 0.41 % ID/g.

And the “Biodistribution: bladder” value ([1]; 2 H post-injection)?
Its value is 4.55 ± 0.86 % ID/g.

What about the “Biodistribution: blood” value ([1]; 2 H post-injection) of the same compound?
Its value is 1.26 ± 0.15 % ID/g.

And the “Biodistribution: heart” value ([1]; 2 H post-injection)?
Its value is 1.79 ± 0.31 % ID/g.

What about the “Biodistribution: kidney” value ([1]; 2 H post-injection) of the same compound?
Its value is 60.2 ± 6.16 % ID/g.

And the “Biodistribution: liver” value ([1]; 2 H post-injection)?
The value was 1.58 ± 0.21 % ID/g.

And the “Biodistribution: lung” value ([1]; 2 H post-injection)?
Its value is 6.30 ± 1.57 % ID/g.

And the “Biodistribution: muscle” value ([1]; 2 H post-injection)?
The value was 0.81 ± 0.12 % ID/g.

And the “Biodistribution: spleen” value ([1]; 2 H post-injection)?
Its value is 20.3 ± 5.21 % ID/g.

What about the “Biodistribution: stomach” value ([1]; 2 H post-injection) of the same compound?
The value was 9.29 ± 2.86 % ID/g.

What about the “Biodistribution: thyroid” value ([1]; 2 H post-injection) of the same compound?
Its value is 3.56 ± 0.95 % ID/g.

What about the tumor/kidney ratio ([1]; 2 H post-injection) of the same compound?
The tumor/kidney ratio was 0.3.

What about the “Biodistribution: Sm int.” value ([1]; 4 H post-injection) of the same compound?
The value was 1.85 ± 0.23 % ID/g.

And the “Biodistribution: bladder” value ([1]; 4 H post-injection)?
The value was 4.17 ± 0.74 % ID/g.

And the “Biodistribution: blood” value ([1]; 4 H post-injection)?
The value was 0.99 ± 0.12 % ID/g.

What about the “Biodistribution: heart” value ([1]; 4 H post-injection) of the same compound?
The value was 1.65 ± 0.39 % ID/g.

And the “Biodistribution: kidney” value ([1]; 4 H post-injection)?
Its value is 60.2 ± 11.5 % ID/g.

What about the “Biodistribution: liver” value ([1]; 4 H post-injection) of the same compound?
The value was 1.63 ± 0.10 % ID/g.

What about the “Biodistribution: lung” value ([1]; 4 H post-injection) of the same compound?
The value was 5.54 ± 1.79 % ID/g.

What about the “Biodistribution: muscle” value ([1]; 4 H post-injection) of the same compound?
The value was 0.72 ± 0.14 % ID/g.

And the “Biodistribution: spleen” value ([1]; 4 H post-injection)?
Its value is 20.3 ± 3.55 % ID/g.

And the “Biodistribution: stomach” value ([1]; 4 H post-injection)?
The value was 13.3 ± 3.12 % ID/g.

What about the “Biodistribution: thyroid” value ([1]; 4 H post-injection) of the same compound?
The value was 3.83 ± 1.18 % ID/g.

What about the “Biodistribution: Sm int.” value ([1]; 18 H post-injection) of the same compound?
Its value is 1.08 ± 0.10 % ID/g.

And the “Biodistribution: bladder” value ([1]; 18 H post-injection)?
Its value is 2.51 ± 0.39 % ID/g.

And the “Biodistribution: blood” value ([1]; 18 H post-injection)?
Its value is 0.53 ± 0.05 % ID/g.

What about the “Biodistribution: heart” value ([1]; 18 H post-injection) of the same compound?
Its value is 1.10 ± 0.16 % ID/g.

And the “Biodistribution: kidney” value ([1]; 18 H post-injection)?
The value was 57.4 ± 7.36 % ID/g.

And the “Biodistribution: liver” value ([1]; 18 H post-injection)?
Its value is 0.82 ± 0.07 % ID/g.

And the “Biodistribution: lung” value ([1]; 18 H post-injection)?
The value was 3.61 ± 0.40 % ID/g.

And the “Biodistribution: muscle” value ([1]; 18 H post-injection)?
Its value is 0.49 ± 0.27 % ID/g.

What about the “Biodistribution: spleen” value ([1]; 18 H post-injection) of the same compound?
Its value is 8.01 ± 2.04 % ID/g.

And the “Biodistribution: stomach” value ([1]; 18 H post-injection)?
The value was 9.42 ± 3.04 % ID/g.

What about the “Biodistribution: thyroid” value ([1]; 18 H post-injection) of the same compound?
Its value is 6.50 ± 1.97 % ID/g.

And the “Non-target organ uptake: spleen” value [1, 3]?
The value was 8.0 % D/g.

What about the “Non-target organ uptake: stomach” value [1, 3] of the same compound?
The value was 9.4 % D/g.

And the “Non-target organ uptake: thyroid” value [1, 3]?
Its value is 6.5 % D/g.

What about the tumor/kidney ratio ([1]; 21 H post-injection) of the same compound?
Its tumor/kidney ratio is 0.5.

And the “Biodistribution: PC-3 PiP” value ([1]; 1 H post-injection)?
Its value is 17.9 ± 2.98 % ID/g.

What about the “Biodistribution: PC-3 PiP” value ([1]; 2 H post-injection) of the same compound?
The value was 20.7 ± 3.42 % ID/g.

What about the “Biodistribution: PC-3 PiP” value ([1]; 4 H post-injection) of the same compound?
The value was 18.3 ± 2.90 % ID/g.

What about the “Biodistribution: PC-3 PiP” value ([1]; 18 H post-injection) of the same compound?
The value was 31.1 ± 9.78 % ID/g.

And the “Biodistribution: PC-3 flu” value ([1]; 1 H post-injection)?
The value was 2.18 ± 0.44 % ID/g.

What about the “Biodistribution: PC-3 flu” value ([1]; 2 H post-injection) of the same compound?
Its value is 1.81 ± 0.27 % ID/g.

And the “Biodistribution: PC-3 flu” value ([1]; 4 H post-injection)?
Its value is 1.53 ± 0.22 % ID/g.

What about the “Biodistribution: PC-3 flu” value ([1]; 18 H post-injection) of the same compound?
The value was 1.17 ± 0.20 % ID/g.

What about the “PSMA positive tumor uptake (in words)” value ([1]; biodistributions of Tables 2, 3, 9, 10) of the same compound?
The value was “demonstrated PSMA positive tumor uptake”.

And the Tumor growth inhibition [2]?
The Tumor growth inhibition was “PSMA Specific Tumor Growth Inhibition”.
